Where “and” joins values, the source holds several entries; their conditions need not be identical. Equal entries are not always repeated. Where two headings read alike, the source gives them in different places.
How the values were obtained:
[1] = system: CD1d; parameters: method as in Paletta et al., 2015; details: ref Paletta et al., 2015; cited from earlier work
[2] = approximate; ref Sigma Aldrich catalogue; cited from earlier work
[3] = target: T1, AF647‐labeled hCD1d (Homo sapiens, UniProt P15813+P61769); test: Microscale thermophoresis (MST) binding assay
T1 construct: TEV protease cleavage site ENLYFQS (C); BirA biotinylation site (C); His7 (C); made in house; host or cells: TurboCHO cells (GenScript)
Text: The experimental limitations of ITF, such as low instrument sensitivity, high sample consumption, signal overlap with some ligands, and low throughput (Fossum et al., [2023]), made it necessary to employ alternative, complementary assays to quantify detergent binding to hCD1d. […] MST measures the diffusion of fluorescent molecules in response to microscopic temperature gradients (Seidel et al., [2013]). When a protein forms a complex with a ligand, changes in hydrodynamic properties, charge, or solvation energy alter its thermophoretic behavior, allowing detection of binding events. To perform MST experiments, Alexa Fluor 647 (AF647) dye was covalently attached to the primary amines of hCD1d via standard N‐hydroxysuccinimide coupling chemistry (Anderson et al., [1964]). The concentration of AF647‐hCD1d was kept constant, and the change in MST signal was measured as a function of increasing detergent concentration (Figure S3). Like ITF, any lipid or detergent that destabilizes CD1 can also alter the MST signal since unfolding changes the protein's Stokes radius and its thermophoretic behavior. […] This is why we compare MST results with ITF and nanoDSF, as described below.
For MST, hCD1d was fluorescently labeled with AF647‐NHS Ester (Invitrogen #A20006). Briefly, a 10 mM stock of AF647‐NHS was prepared in anhydrous DMSO. Then, 100 μL of 50 μM hCD1d in 1X PBS pH 7.4 was mixed with 1 μL of 10 mM AF647‐NHS (1:2 molar ratio of protein: dye). The mixture was allowed to react for 1 h in the dark at 25°C. Unreacted dye was removed from the protein–dye conjugate by performing size exclusion chromatography in the dark with a Superdex 200 Increase 10/300 GL column at a flow rate of 0.5 mL/min in SEC buffer (100 mM NaCl, 20 mM sodium phosphate, pH 7.2). The degree of labeling was determined by a NanoDrop spectrophotometer at A647 nm (dye absorbance) and A280 nm (hCD1d absorbance). The degree of labeling was determined from the ratio of dye concentration to protein concentration. The degree of labeling was ~75%.
MST experiments were performed using a Monolith NT.115 instrument (NanoTemper Technologies) using Monolith standard capillaries and the red excitation laser setup. The following settings were applied for all MST experiments: excitation power: 30%–50%, MST power: medium, before MST time: 3 s, MST on time (IR laser): 20 seconds, and after MST time: 1 s. MST measurements were analyzed using the Monolith Affinity Analysis software v2.3 and exported for plotting in GraphPad Prism v10.1. Three replicates were performed, and data are presented as the mean ± standard deviation (n = 3).
MST measurements of 100 nM AF647‐hCD1d were acquired in the absence and presence of detergents in 1X PBS pH 7.4 at 25°C. Prior to data acquisition, hCD1d and detergent or lipid samples were incubated at 37°C overnight (~12 h) to simulate in vitro and in vivo loading conditions. […] For 18:1 LPC experiments: MST data of 100 nM AF647‐hCD1d were acquired in the absence and presence of 18:1 LPC in 1X PBS pH 7.4 at 25°C.

T1 sequence (P61769+P15813 fused): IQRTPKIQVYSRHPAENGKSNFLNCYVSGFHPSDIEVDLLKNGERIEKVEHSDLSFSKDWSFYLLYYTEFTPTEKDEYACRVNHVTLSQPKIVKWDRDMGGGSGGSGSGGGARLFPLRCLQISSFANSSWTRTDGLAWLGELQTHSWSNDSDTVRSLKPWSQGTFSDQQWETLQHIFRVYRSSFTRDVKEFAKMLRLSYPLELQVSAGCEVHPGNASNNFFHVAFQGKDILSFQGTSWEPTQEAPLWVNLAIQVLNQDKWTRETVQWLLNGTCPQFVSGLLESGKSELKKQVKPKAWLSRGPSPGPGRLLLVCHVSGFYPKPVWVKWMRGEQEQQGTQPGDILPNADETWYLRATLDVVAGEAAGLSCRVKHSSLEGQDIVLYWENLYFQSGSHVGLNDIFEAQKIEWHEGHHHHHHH

- Fnorm (rep 1-3) ([3]; 3.05176e-8 M detergent): 791.032 ‰ and 791.82 ‰ and 793.917 ‰
- Fnorm (rep 1-3) ([3]; 6.10352e-8 M detergent): 788.237 ‰ and 790.225 ‰ and 792.188 ‰
- Fnorm (rep 1-3) ([3]; 1.2207e-7 M detergent): 789.186 ‰ and 789.645 ‰ and 792.672 ‰
- Fnorm (rep 1-3) ([3]; 2.44141e-7 M detergent): 789.349 ‰ and 791.297 ‰ and 791.601 ‰
- Fnorm (rep 1-3) ([3]; 4.88281e-7 M detergent): 793.87 ‰ and 796.123 ‰ and 800.037 ‰
- Fnorm (rep 1-3) ([3]; 9.76563e-7 M detergent): 794.535 ‰ and 800.785 ‰ and 799.868 ‰
- Fnorm (rep 1-3) ([3]; 1.95313e-6 M detergent): 799.667 ‰ and 802.675 ‰ and 807.47 ‰
- Fnorm (rep 1-3) ([3]; 3.90625e-6 M detergent): 800.165 ‰ and 807.424 ‰ and 808.195 ‰
- Fnorm (rep 1-3) ([3]; 7.8125e-6 M detergent): 803.847 ‰ and 808.251 ‰ and 810.421 ‰
- Fnorm (rep 1-3) ([3]; 1.5625e-5 M detergent): 804.661 ‰ and 807.958 ‰ and 808.866 ‰
- Fnorm (rep 1-3) ([3]; 3.125e-5 M detergent): 803.048 ‰ and 809.197 ‰ and 809.196 ‰
- Fnorm (rep 1-3) ([3]; 6.25e-5 M detergent): 803.488 ‰ and 807.296 ‰ and 810.346 ‰
- Fnorm (rep 1-3) ([3]; 0.000125 M detergent): 802.129 ‰ and 807.585 ‰ and 809.032 ‰
- Fnorm (rep 1-3) ([3]; 0.00025 M detergent): 803.446 ‰ and 808.163 ‰ and 808.584 ‰
- Fnorm (rep 1-3) ([3]; 0.0005 M detergent): 803.236 ‰ and 807.226 ‰ and 808.719 ‰
- Fnorm (rep 1-3) ([3]; 0.001 M detergent, 100 nM AF647‐hCD1d): 804.928 ‰ and 807.69 ‰ and 809.093 ‰
- Kd ([3]; Figure 5B, detergent binding to hCD1d, read-out: MST - Kd (uM) average): 0.96 µM
- Kd ([3]; detergent with 100 nM AF647‐labeled hCD1d, 25°C, apparent, read-out: K D (MST)): 0.9 ± 0.2 µM
Substance: Tyloxapol
- efficiency of loading α‐GalCer analogues onto CD1d (in words) [1]: more efficient than Tween 20 and Triton X‐100
- CMC [2]: 18 µM

Source: publication PMC12720774, “Detergents alter the stability and lipid binding properties of the CD1d immunoreceptor” (Protein Science : A Publication of the Protein Society, 2025)
